Results from ChEMBL document CHEMBL5137058, “Therapeutic Strategies to Target the Androgen Receptor” (J Med Chem, 2022).

How the values were obtained:
[1] = biological target: T1, von Hippel-Lindau disease tumor suppressor/Androgen receptor (Homo sapiens, UniProt P10275+P40337); assay: Protac activity at VHL (unknown origin)/Androgen receptor (unknown origin) assessed as full-length Androgen receptor degradation measured by immunoblotting method; assay type: protein assay
Target sequence in this assay (P10275 whole entry, canonical isoform): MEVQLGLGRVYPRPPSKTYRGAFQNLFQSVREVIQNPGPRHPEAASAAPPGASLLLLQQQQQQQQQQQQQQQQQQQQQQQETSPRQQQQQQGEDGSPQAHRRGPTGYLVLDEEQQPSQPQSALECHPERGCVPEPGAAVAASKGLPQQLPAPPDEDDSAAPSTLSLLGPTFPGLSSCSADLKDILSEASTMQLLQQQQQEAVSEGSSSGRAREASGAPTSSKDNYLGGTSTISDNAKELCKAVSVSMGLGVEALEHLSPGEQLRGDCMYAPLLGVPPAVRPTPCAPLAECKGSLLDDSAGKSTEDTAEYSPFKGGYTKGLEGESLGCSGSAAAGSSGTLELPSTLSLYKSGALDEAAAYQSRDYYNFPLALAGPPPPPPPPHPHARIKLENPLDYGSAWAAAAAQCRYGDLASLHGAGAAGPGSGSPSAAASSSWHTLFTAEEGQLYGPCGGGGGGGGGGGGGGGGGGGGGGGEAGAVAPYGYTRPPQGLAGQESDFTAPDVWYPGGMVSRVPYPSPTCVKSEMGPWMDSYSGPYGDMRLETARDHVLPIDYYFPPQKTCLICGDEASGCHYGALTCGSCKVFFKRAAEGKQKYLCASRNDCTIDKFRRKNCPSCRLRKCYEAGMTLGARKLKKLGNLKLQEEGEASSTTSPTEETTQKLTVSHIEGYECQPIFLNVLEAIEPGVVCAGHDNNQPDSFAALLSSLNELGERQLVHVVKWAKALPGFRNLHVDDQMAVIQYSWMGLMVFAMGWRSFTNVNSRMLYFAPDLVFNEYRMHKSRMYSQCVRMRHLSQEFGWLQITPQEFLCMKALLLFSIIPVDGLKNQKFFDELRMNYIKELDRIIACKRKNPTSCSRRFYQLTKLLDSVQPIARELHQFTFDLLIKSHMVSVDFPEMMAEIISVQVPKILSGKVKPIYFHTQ
Target sequence in this assay (P40337 whole entry, canonical isoform): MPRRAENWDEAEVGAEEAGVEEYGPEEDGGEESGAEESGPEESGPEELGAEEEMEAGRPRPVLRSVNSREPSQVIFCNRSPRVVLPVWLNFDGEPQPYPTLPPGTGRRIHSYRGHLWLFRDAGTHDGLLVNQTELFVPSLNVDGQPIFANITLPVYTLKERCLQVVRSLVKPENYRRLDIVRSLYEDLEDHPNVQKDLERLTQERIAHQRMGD

[2] = biological target: T1, von Hippel-Lindau disease tumor suppressor/Androgen receptor; assay: Protac activity at VHL (unknown origin)/Androgen receptor splice variant7 (unknown origin) assessed as Androgen receptor degradation measured by immunoblotting method
Target sequence in this assay (P10275 whole entry, looked up, change not shown, canonical isoform): as the sequence (P10275 whole entry, canonical isoform) above
Target sequence in this assay (P40337 whole entry, looked up, change not shown, canonical isoform): as the sequence (P40337 whole entry, canonical isoform) above

[3] = biological target: T1, von Hippel-Lindau disease tumor suppressor/Androgen receptor; assay: Protac activity at VHL/Androgen receptor in human VCaP cells assessed as Androgen receptor degradation; assay type: cell-based
Target sequence in this assay (P10275 whole entry, canonical isoform): as the sequence (P10275 whole entry, canonical isoform) above
Target sequence in this assay (P40337 whole entry, canonical isoform): as the sequence (P40337 whole entry, canonical isoform) above

[4] = biological target: T1, von Hippel-Lindau disease tumor suppressor/Androgen receptor; assay: Protac activity at VHL/Androgen receptor in human LNCaP cells assessed as Androgen receptor degradation; assay type: cell-based
Target sequence in this assay (P10275 whole entry, canonical isoform): as the sequence (P10275 whole entry, canonical isoform) above
Target sequence in this assay (P40337 whole entry, canonical isoform): as the sequence (P40337 whole entry, canonical isoform) above

Row | DC50 [1] [nM] | DC50 [2] [nM] | DC50 [3] [nM] | DC50 [4] [nM] | SMILES
1 | 2000 | 370 | – | – | Cc1ncsc1-c1ccc([C@H](C)NC(=O)[C@@H]2C[C@@H](O)CN2C(=O)[C@@H](NC(=O)CCCCNC(=O)COc2c(-c3csc(N4CCOCC4)n3)ccc(F)c2F)C(C)(C)C)cc1
2 | – | – | < 1 | < 1 | Cc1ncsc1-c1ccc([C@H](CC(=O)N2CCC(N3CCC(C#Cc4ccc(C(=O)N[C@H]5C(C)(C)[C@H](Oc6ccc(C#N)c(Cl)c6)C5(C)C)cc4)CC3)CC2)NC(=O)[C@@H]2C[C@@H](O)CN2C(=O)[C@@H](NC(=O)C2(F)CC2)C(C)(C)C)cc1
